Results from US10206916B2, “Cabozantinib salts and their use as anti-cancer agents” (Sandoz AG, priority 2015, dated 2019).

Columns and labels:
[1] = Thermogravimetric/differential thermal analysis (TG/DTA); format: physicochemical
Description: B) Organic Solvent Content: Thermogravimetric Analysis (TGA) Approximately, 5-10 mg of material was accurately weighed into an open aluminium pan and loaded into a simultaneous thermogravimetric/differential thermal analyser (TG/DTA) and held at room temperature. The sample was then heated at a rate of 10° C./min from 25° C. to 300° C. during which time the change in sample weight was recorded along with any differential thermal events (DTA). Nitrogen was used as the purge gas, at a flow rate of 100 cm^3/min.

[2] = Dynamic vapour sorption (DVS) with post-DVS XRPD; format: physicochemical; conditions: for water up take (weight gain) by DVS: between 20% and 70% RH, ca. 25° C.; for hygroscopicity by DVS: 20% to 70% RH, non-hygroscopic = weight gain of less than 2 weight-%; for Post-DVS XRPD analysis: after DVS sorption/desorption cycle; for hygroscopicity compared with cabozantinib malate: based on DVS isotherm
Description: XRPD analysis was carried out on a Siemens D5000 diffractometer, scanning the samples between 3 and 50 or 30°2-theta. For samples of less than 100 mg, 10-20 mg of material was gently compressed onto a glass disc inserted into an XRPD sample holder. For samples of more than 100 mg, ca. 100 mg of material was gently compressed into a plastic XRPD sample holder to ensure a smooth sample surface, just above the level of the sample holder. The sample was then loaded into the diffractometer running in reflection mode and analyzed using the following experimental conditions. C) Water Content: Dynamic Vapour Sorption (DVS) Approximately 10-20 mg of sample was placed into a vapour sorption balance pan and loaded into a DVS-1 dynamic vapour sorption balance by Surface Measurement Systems. The sample was subjected to a ramping profile from 20-90% relative humidity (RH) at 10% increments, maintaining the sample at each step until a stable weight had been achieved (99.5% step completion). After completion of the sorption cycle, the sample was dried using the same procedure, but all the way down to 0% RH and finally taken back to the starting point of 20% RH. The weight change during the sorption/desorption cycles were plotted, allowing for the hygroscopic nature of the sample to be determined.

[3] = reported in WO2010/083414; cited from earlier work
[4] = cited from earlier work
[5] = Aqueous solubility measurement (slurry in deionized water, HPLC analysis); format: physicochemical
Description: HPLC analysis was performed according to the following conditions: • Instrument: Agilent 1100 • Column: Grace Smart RP 185μ 150×4.6 mm • Column Temperature: 30° C. UV wavelength: 249 nm • Injection Volume: 10 μl • Flow Rate: 1.2 ml/min • Mobile Phase A: 0.1% Phosphoric acid • Mobile Phase B: 0.1% Phosphoric acid in acetonitrile • Gradient program: H) Aqueous Solubility Measurements Each salt was individually slurried in deionized water and subjected to shaking for ca. 24 h at ambient temperature (ca. 22° C.). The resulting saturated solutions were filtered and analyzed by HPLC analysis. XRPD analysis was carried out on any solid retained after the solubility experiment.

[6] = listed as cabozantinib succinate Form A, succinate
[7] = listed as crystalline succinate salt of cabozantinib, succinate
[8] = listed as acetate salt, acetate

In the case of COc1cc2nccc(Oc3ccc(NC(=O)C4(C(=O)Nc5ccc(F)cc5)CC4)cc3)c2cc1OC [(L)-malate, reference compound], the “TG/DTA weight loss corresponding to the endotherm in DTA trace at ca. 178° C.” value ([1]; at ca. 178° C.) is reported as “C. and 1% loss”, the “TG/DTA weight loss below ca. 178° C.” value ([1]; below ca. 178° C.) is reported as 1.2 weight-% loss and the “weight gain relative to cabozantinib succinate Form A” value ([2]; DVS, 20 to 70% RH) is reported as 10 fold. The “water up take (weight gain) by DVS” value [2] was 0.3 weight-%, the “water up take (weight gain) by DVS” value ([2]; listed as L-malate) was “about 0.3 weight-%” and the “water up take (weight gain) by DVS” value ([2]; listed as cabozantinib malate) was “about 0.3 weight-%”. For the same compound, the hygroscopicity as reported [3] was “non-hygroscopic” and the “solubility compared with cabozantinib free base” value [4] was “enhanced solubility”.

For COc1cc2nccc(Oc3ccc(NC(=O)C4(C(=O)Nc5ccc(F)cc5)CC4)cc3)c2cc1OC [Cabozantinib, N-{4-[(6,7-dimethoxy-4-quinolinyl)oxy]phenyl}-N′-(4-fluorophenyl)-1,1-cyclopropanedicarboxamide], the “solubility (BCS classification)” value [4] is listed as “low solubility”.

In the case of COc1cc2nccc(Oc3ccc(NC(=O)C4(C(=O)Nc5ccc(F)cc5)CC4)cc3)c2cc1OC.O=C(O)CCC(=O)O [Form A, N-{4-[(6,7-dimethoxy-4-quinolinyl)oxy]phenyl}-N′-(4-fluorophenyl)-1,1-cyclopropanedicarboxamide succinate], the “TG/DTA weight loss corresponding to the endotherm in the DTA trace at ca. 173° C.” value ([1]; heating rate 10° C./min, at ca. 173° C., listed as cabozantinib succinate Form A, succinate) is reported as roughly 1 weight-%, the “TG/DTA weight loss below ca. 173° C.” value ([1]; heating rate 10° C./min, below ca. 173° C., listed as cabozantinib succinate Form A, succinate) is reported as less than 0.6 weight-% and the “hygroscopicity by DVS” value [2] is reported as “non-hygroscopic”. For the same compound, the “Post-DVS XRPD analysis” value [2, 6] was “remained crystalline and consistent with the input form”, the “Post-DVS XRPD analysis” value [2, 7] was “remained crystalline and was consistent with the input form” and the “hygroscopicity compared with cabozantinib malate” value [2, 6] was “less hygroscopic”. The “hygroscopicity compared with cabozantinib malate” value ([2]; succinate) was “lower hygroscopicity”, the “water up take (weight gain) by DVS” value [2, 6] was “about 0.03 weight-%” and the “water up take (weight gain) by DVS” value [2, 7] was “ca. 0.03 weight-%”. For the same compound, the “water up take (weight gain) by DVS” value ([2]; succinate) was 0.03 weight-%, the “solubility compared to cabozantinib malate” value ([5]; comparison in words, no malate value printed) was “improved solubility” and the “solid form after the solubility experiment (XRPD)” value ([5]; solid retained after solubility experiment) was “consistent with the input succinate salt”. For the same compound, the solubility ([5]; thermodynamic from solid, deionized water, shaking ca. 24 h, ambient temperature (ca. 22° C.), HPLC analysis) was 164 µg/mL.

In the case of CC(=O)O.COc1cc2nccc(Oc3ccc(NC(=O)C4(C(=O)Nc5ccc(F)cc5)CC4)cc3)c2cc1OC [Form A-1, N-{4-[(6,7-dimethoxy-4-quinolinyl)oxy]phenyl}-N′-(4-fluorophenyl)-1,1-cyclopropanedicarboxamide acetate], the “hygroscopicity by DVS” value [2] is reported as “non-hygroscopic”, the “Post-DVS XRPD analysis” value ([2]; acetate) is reported as “remained crystalline and consistent with the input form” and the “Post-DVS XRPD analysis” value [2, 8] is reported as “remained crystalline”. The “hygroscopicity compared with cabozantinib malate” value [2] was “less hygroscopic” and the “water up take (weight gain) by DVS” value [2, 8] was roughly 0.1 weight-%.
